ChEMBL document CHEMBL4422665, “Design, synthesis and algicides activities of thiourea derivatives as the novel scaffold aldolase inhibitors” (Bioorg Med Chem, 2019)
Converted amounts (≈) assume the structure as drawn. Blank lines part the entries; values can stand above or below the compound they belong to.

Assays:
[1] = Lipophilicity, log P of the compound; type: physicochemical; conditions: octanol/water
[2] = Solubility of the compound; type: physicochemical
[3] = target: T1, Fructose-bisphosphate aldolase class 2 (Synechocystis sp. (strain PCC 6803 / Kazusa), UniProt Q55664); assay: (§1) Inhibition of recombinant Synechocystis sp. PCC 6803 FBA2 expressed in Escherichia coli BL21 (DE3) using FBP as substrate measured over 5 mins
T1 sequence (Q55664 whole entry): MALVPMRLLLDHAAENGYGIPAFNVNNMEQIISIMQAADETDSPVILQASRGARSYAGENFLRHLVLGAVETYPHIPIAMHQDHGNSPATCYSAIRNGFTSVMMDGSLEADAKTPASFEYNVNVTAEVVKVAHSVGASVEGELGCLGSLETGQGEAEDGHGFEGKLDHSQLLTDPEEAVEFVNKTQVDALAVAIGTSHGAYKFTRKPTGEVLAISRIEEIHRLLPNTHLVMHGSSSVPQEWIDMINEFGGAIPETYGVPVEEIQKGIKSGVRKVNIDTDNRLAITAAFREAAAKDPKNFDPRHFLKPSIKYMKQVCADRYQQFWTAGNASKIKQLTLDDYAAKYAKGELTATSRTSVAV

[4] = tested on: Synechocystis sp. PCC 6803; assay: Algicidal activity against wild-type Synechocystis sp. PCC 6803 after 24 hrs by microbroth dilution method; type: functional, organism-based
[5] = target: Fructose-bisphosphate aldolase class 2 (Synechocystis sp. (strain PCC 6803 / Kazusa), UniProt Q55664, S50A); assay: Inhibition of recombinant Synechocystis sp. PCC 6803 FBA2 S50A mutant expressed in Escherichia coli BL21 (DE3) using FBP as substrate measured over 5 mins
Fructose-bisphosphate aldolase class 2 (Synechocystis sp. (strain PCC 6803 / Kazusa), UniProt Q55664, S50A), sequence (Q55664 2-359 S50A limits assumed): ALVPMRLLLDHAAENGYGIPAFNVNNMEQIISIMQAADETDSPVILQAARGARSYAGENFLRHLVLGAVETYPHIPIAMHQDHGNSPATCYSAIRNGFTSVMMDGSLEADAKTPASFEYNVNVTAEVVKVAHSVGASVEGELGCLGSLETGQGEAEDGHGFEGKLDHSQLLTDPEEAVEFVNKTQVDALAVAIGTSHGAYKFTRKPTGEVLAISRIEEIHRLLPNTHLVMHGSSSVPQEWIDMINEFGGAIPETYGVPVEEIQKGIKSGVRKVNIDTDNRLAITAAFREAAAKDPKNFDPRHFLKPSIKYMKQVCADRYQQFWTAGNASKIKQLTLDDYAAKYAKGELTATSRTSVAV

[6] = target: Fructose-bisphosphate aldolase class 2 (Synechocystis sp. (strain PCC 6803 / Kazusa), UniProt Q55664, R51A); assay: Inhibition of recombinant Synechocystis sp. PCC 6803 FBA2 R51A mutant expressed in Escherichia coli BL21 (DE3) using FBP as substrate measured over 5 mins
Fructose-bisphosphate aldolase class 2 (Synechocystis sp. (strain PCC 6803 / Kazusa), UniProt Q55664, R51A), sequence (Q55664 2-359 R51A limits assumed): as the sequence (Q55664 2-359 S50A limits assumed) above, with A49S, R50A counted along it

[7] = target: Fructose-bisphosphate aldolase class 2 (Synechocystis sp. (strain PCC 6803 / Kazusa), UniProt Q55664, S55A); assay: Inhibition of recombinant Synechocystis sp. PCC 6803 FBA2 S55A mutant expressed in Escherichia coli BL21 (DE3) using FBP as substrate measured over 5 mins
Fructose-bisphosphate aldolase class 2 (Synechocystis sp. (strain PCC 6803 / Kazusa), UniProt Q55664, S55A), sequence (Q55664 2-359 S55A limits assumed): as the sequence (Q55664 2-359 S50A limits assumed) above, with A49S, S54A counted along it

[8] = target: Fructose-bisphosphate aldolase class 2 (Synechocystis sp. (strain PCC 6803 / Kazusa), UniProt Q55664, N275A); assay: Inhibition of recombinant Synechocystis sp. PCC 6803 FBA2 N275A mutant expressed in Escherichia coli BL21 (DE3) using FBP as substrate measured over 5 mins
Fructose-bisphosphate aldolase class 2 (Synechocystis sp. (strain PCC 6803 / Kazusa), UniProt Q55664, N275A), sequence (Q55664 2-359 N275A limits assumed): as the sequence (Q55664 2-359 S50A limits assumed) above, with A49S, N274A counted along it

[9] = target: Fructose-bisphosphate aldolase class 2 (Synechocystis sp. (strain PCC 6803 / Kazusa), UniProt Q55664, D277A); assay: Inhibition of recombinant Synechocystis sp. PCC 6803 FBA2 D277A mutant expressed in Escherichia coli BL21 (DE3) using FBP as substrate measured over 5 mins
Fructose-bisphosphate aldolase class 2 (Synechocystis sp. (strain PCC 6803 / Kazusa), UniProt Q55664, D277A), sequence (Q55664 2-359 D277A limits assumed): as the sequence (Q55664 2-359 S50A limits assumed) above, with A49S, D276A counted along it

[10] = target: Fructose-bisphosphate aldolase class 2 (Synechocystis sp. (strain PCC 6803 / Kazusa), UniProt Q55664, T278A); assay: Inhibition of recombinant Synechocystis sp. PCC 6803 FBA2 T278A mutant expressed in Escherichia coli BL21 (DE3) using FBP as substrate measured over 5 mins
Fructose-bisphosphate aldolase class 2 (Synechocystis sp. (strain PCC 6803 / Kazusa), UniProt Q55664, T278A), sequence (Q55664 2-359 T278A limits assumed): as the sequence (Q55664 2-359 S50A limits assumed) above, with A49S, T277A counted along it

[11] = target: Fructose-bisphosphate aldolase class 2 (Synechocystis sp. (strain PCC 6803 / Kazusa), UniProt Q55664, R281A); assay: Inhibition of recombinant Synechocystis sp. PCC 6803 FBA2 R281A mutant expressed in Escherichia coli BL21 (DE3) using FBP as substrate measured over 5 mins
Fructose-bisphosphate aldolase class 2 (Synechocystis sp. (strain PCC 6803 / Kazusa), UniProt Q55664, R281A), sequence (Q55664 2-359 R281A limits assumed): as the sequence (Q55664 2-359 S50A limits assumed) above, with A49S, R280A counted along it

[12] = target: Fructose-bisphosphate aldolase class 2 (Synechocystis sp. (strain PCC 6803 / Kazusa), UniProt Q55664, R302A); assay: Inhibition of recombinant Synechocystis sp. PCC 6803 FBA2 R302A mutant expressed in Escherichia coli BL21 (DE3) using FBP as substrate measured over 5 mins
Fructose-bisphosphate aldolase class 2 (Synechocystis sp. (strain PCC 6803 / Kazusa), UniProt Q55664, R302A), sequence (Q55664 2-359 R302A limits assumed): as the sequence (Q55664 2-359 S50A limits assumed) above, with A49S, R301A counted along it

[13] = tested on: Synechocystis sp. PCC 6803; assay: Selectivity ratio of Ki for recombinant Synechocystis sp. PCC 6803 FBA2 S50A mutant expressed in Escherichia coli BL21 (DE3) to Ki for recombinant Synechocystis sp. PCC 6803 FBA2 expressed in Escherichia coli BL21 (DE3)
[14] = tested on: Synechocystis sp. PCC 6803; assay: Selectivity ratio of Ki for recombinant Synechocystis sp. PCC 6803 FBA2 R51A mutant expressed in Escherichia coli BL21 (DE3) to Ki for recombinant Synechocystis sp. PCC 6803 FBA2 expressed in Escherichia coli BL21 (DE3)
[15] = tested on: Synechocystis sp. PCC 6803; assay: Selectivity ratio of Ki for recombinant Synechocystis sp. PCC 6803 FBA2 S55A mutant expressed in Escherichia coli BL21 (DE3) to Ki for recombinant Synechocystis sp. PCC 6803 FBA2 expressed in Escherichia coli BL21 (DE3)
[16] = tested on: Synechocystis sp. PCC 6803; assay: Selectivity ratio of Ki for recombinant Synechocystis sp. PCC 6803 FBA2 N275A mutant expressed in Escherichia coli BL21 (DE3) to Ki for recombinant Synechocystis sp. PCC 6803 FBA2 expressed in Escherichia coli BL21 (DE3)
[17] = tested on: Synechocystis sp. PCC 6803; assay: Selectivity ratio of Ki for recombinant Synechocystis sp. PCC 6803 FBA2 D277A mutant expressed in Escherichia coli BL21 (DE3) to Ki for recombinant Synechocystis sp. PCC 6803 FBA2 expressed in Escherichia coli BL21 (DE3)
[18] = tested on: Synechocystis sp. PCC 6803; assay: Selectivity ratio of Ki for recombinant Synechocystis sp. PCC 6803 FBA2 T278A mutant expressed in Escherichia coli BL21 (DE3) to Ki for recombinant Synechocystis sp. PCC 6803 FBA2 expressed in Escherichia coli BL21 (DE3)
[19] = tested on: Synechocystis sp. PCC 6803; assay: Selectivity ratio of Ki for recombinant Synechocystis sp. PCC 6803 FBA2 R281A mutant expressed in Escherichia coli BL21 (DE3) to Ki for recombinant Synechocystis sp. PCC 6803 FBA2 expressed in Escherichia coli BL21 (DE3)
[20] = tested on: Synechocystis sp. PCC 6803; assay: Selectivity ratio of Ki for recombinant Synechocystis sp. PCC 6803 FBA2 R302A mutant expressed in Escherichia coli BL21 (DE3) to Ki for recombinant Synechocystis sp. PCC 6803 FBA2 expressed in Escherichia coli BL21 (DE3)
[21] = target: T2, Fructose-bisphosphate aldolase class 2 (Synechocystis sp. (strain PCC 6803 / Kazusa)) (UniProt Q55664); assay: as §1; design: concentration or dose not given beside the values
T2 sequence (whole entry): T1 sequence (Q55664 whole entry)

[22] = tested on: Synechocystis sp. PCC 6803; assay: Algicidal activity against FBA2 over-expressing Synechocystis sp. PCC 6803 after 24 hrs by microbroth dilution method; type: functional, organism-based; conditions: Synechocystis sp. PCC 6803, 24 h
[23] = tested on: Synechocystis sp. PCC 6803; assay: Selectivity ratio of EC50 for FBA2 over-expressing Synechocystis sp. PCC 6803 to EC50 for wild-type Synechocystis sp. PCC 6803; type: functional
[24] = Synechocystis sp. PCC 6803, 24 h, read-out: EC50

logP [1]: 2.45
solubility [2]: 160 µg/mL (≈ 504 µM)
SMILES: O=CNC(=S)Nc1cc(-c2ccccc2)c([N+](=O)[O-])cc1O

Ki [3]: 630 nM
SMILES: O=C(NC(=S)NNC(=O)c1ccccc1O)c1ccc(Cl)cc1
EC50 [4]: 0.98 ppm

Ki [3]: 2800 nM
SMILES: O=C(NNC(=S)NC(=O)c1ccccc1)c1ccc([N+](=O)[O-])cc1
EC50 [4, 24]: 2700 nM

logP [1]: 0.99
solubility [2]: 290 µg/mL (≈ 923 µM)
SMILES: c1ccc(-n2c(-n3cnc4ncncc43)nc3cncnc32)cc1

Ki [3]: 1250 nM
SMILES: O=C(NC(=S)NNC(=O)c1ccc(O)cc1O)c1ccccc1
EC50 [4, 24]: 1250 nM

Ki [3]: 5500 nM
SMILES: O=C(NC(=S)Nc1ccc([N+](=O)[O-])cc1O)c1ccc(C(F)(F)F)cc1

SMILES: O=C(NC(=S)Nc1ccc([N+](=O)[O-])cc1O)c1ccc([N+](=O)[O-])cc1
Ki [3]: 1900 nM
Ki [5]: 3.9 µM
Ki [6]: 3.3 µM
Ki [7]: 3400 nM
Ki [8]: 37.9 µM
Ki [9]: 4.6 µM
Ki [10]: 87.5 µM
Ki [11]: 144 µM
Ki [12]: 24.4 µM
Ratio Ki [13]: 2.1
Ratio Ki [14]: 1.7
Ratio Ki [15]: 2.1
Ratio Ki [16]: 20
Ratio Ki [17]: 2.4
Ratio Ki [18]: 46.3
Ratio Ki [19]: 76
Ratio Ki [20]: 12.9

Ki [3]: 2500 nM
SMILES: O=C(NC(=S)Nc1ccc([N+](=O)[O-])cc1O)c1ccc(-c2ccccc2)cc1

Ki [3]: 5500 nM
SMILES: Cc1ccc(C(=O)NC(=S)Nc2ccc([N+](=O)[O-])cc2O)cc1

inhibition [21]: 15%
SMILES: O=C(NC(=S)Nc1ccccc1[N+](=O)[O-])c1ccccc1

inhibition [21]: 60%
SMILES: O=C(NC(=S)Nc1ccc([N+](=O)[O-])cc1)c1ccccc1

inhibition [21]: 30%
SMILES: O=C(NC(=S)Nc1ccccc1Cl)c1ccccc1

Ki [3]: 9100 nM
SMILES: O=C(NC(=S)Nc1cc([N+](=O)[O-])ccc1O)c1ccccc1

SMILES: O=C(NC(=S)NNC(=O)c1ccccc1O)c1ccccc1
Ki [3]: 650 to 700 nM
Ki [5]: 15.2 µM
Ki [6]: 3.9 µM
Ki [7]: 1000 nM
Ki [8]: 15.9 µM
Ki [9]: 7.2 µM
Ki [10]: 4.3 µM
Ki [11]: 52.3 µM
Ki [12]: 20.4 µM
Ratio Ki [13]: 23.4
Ratio Ki [14]: 6
Ratio Ki [15]: 1.5
Ratio Ki [16]: 24.5
Ratio Ki [17]: 11
Ratio Ki [18]: 6.6
Ratio Ki [19]: 80.5
Ratio Ki [20]: 31
EC50 [22]: 4.98 µM
EC50 [4, 24]: 280 nM
Ratio EC50 [23]: 18

logP [1]: 2.48
solubility [2]: 160 µg/mL (≈ 504 µM)
SMILES: O=CNC(=S)Nc1c(O)cc([N+](=O)[O-])cc1-c1ccccc1

inhibition [21]: 42%
SMILES: O=C(NC(=S)Nc1ccc(Br)cc1)c1ccccc1

logP [1]: 0.94
solubility [2]: 730 µg/mL (≈ 2340 µM)
SMILES: O[C@@H]1CC[C@@](O)(n2c(-c3ccccc3)nc3ncncc32)OC1

logP [1]: 3.23
solubility [2]: 6350 µg/mL (≈ 20800 µM)
SMILES: N[C@@H](Cc1ccc(O)cc1-c1ccccc1)c1ccccc1O

inhibition [21]: 22%
SMILES: O=C(NC(=S)Nc1ccc(O)cc1)c1ccccc1

logP [1]: 0.82
solubility [2]: 440 µg/mL (≈ 1410 µM)
SMILES: O[C@H]1CO[C@@H](O)C(c2nc3ncncc3n2-c2ccccc2)C1 (stereo not given in full)

Ki [3]: 3500 nM
SMILES: O=C(NNC(=S)NC(=O)c1ccccc1)c1ccc(F)cc1
EC50 [4]: 8.2 ppm

Ki [3]: 1870 nM
SMILES: O=C(NNC(=S)NC(=O)c1ccccc1)c1cccc([N+](=O)[O-])c1
EC50 [4]: 0.39 ppm

inhibition [21]: 37%
SMILES: O=C(NC(=S)Nc1ccccc1O)c1ccccc1

SMILES: CCNCCc1ccccc1-c1ccccc1
logP [1]: 4
solubility [2]: 8350 µg/mL (≈ 37100 µM)

logP [1]: 2.96
solubility [2]: 13100 µg/mL (≈ 42600 µM)
SMILES: O=C(O)c1cccc([C@@H]2CCC[C@@H]2c2ncc3nc[nH]c3n2)c1

logP [1]: 3.32
solubility [2]: 200 µg/mL (≈ 636 µM)
SMILES: Oc1cccc(COC2CC[C@@H](O)C(Cc3ccccc3)O2)c1 (stereo not given in full)

Ki [3]: 3100 nM
SMILES: O=C(NNC(=S)NC(=O)c1ccccc1)c1cccc(Br)c1
EC50 [4]: 5.9 ppm

Ki [3]: 9100 nM
SMILES: O=C(NC(=S)Nc1cc([N+](=O)[O-])ccc1O)c1ccc(Cl)cc1

Ki [3]: 5200 nM
SMILES: O=C(NNC(=S)NC(=O)c1ccccc1)c1ccc(Br)cc1
EC50 [4]: 1.58 ppm

logP [1]: 2.6
solubility [2]: 180 µg/mL (≈ 567 µM)
Ki [3]: 16700 nM
SMILES: O=C(NC(=S)Nc1ccc([N+](=O)[O-])cc1O)c1ccccc1

Ki [3]: 880 nM
SMILES: O=C(NC(=S)NNC(=O)c1ccccc1O)c1ccc(F)cc1
EC50 [4, 24]: 880 nM
